From patent publication US20200390100A1, “SUBSTITUTED N-HETEROCYCLYL- AND N-HETEROARYL-TETRAHYDROPYRIMIDINONES AND THE SALTS THEREOF, AND THE USE OF SAME AS HERBICIDAL ACTIVE SUBSTANCES” (Bayer Aktiengesellschaft, priority 2017, published 2020)

Assays:
[1] = system: Echinochloa crus-galli; experiment: Pre-emergence herbicidal action, greenhouse, 320 g/ha; format: in vivo; settings: application rate 320 g/ha, scored visually after about 3 weeks vs untreated controls
Procedure, shortened: (§1)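 Visual % damage versus untreated pots was read about 3 weeks after treatment, where 0% means growth as in controls and 100% means dead plants. Compounds were applied as WP or EC in water plus 0.5% additive onto the covering soil over freshly sown seeds.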

[2] = system: Stellaria media; experiment: as above; format: in vivo; settings: application rate 320 g/ha, scored visually after about 3 weeks vs untreated controls
Procedure, shortened: as §1

[3] = system: Polygonum convolvulus; experiment: as above; format: in vivo; settings: application rate 320 g/ha, scored visually after about 3 weeks vs untreated controls
Procedure, shortened: as §1

[4] = system: Hordeum murinum; experiment: as above; format: in vivo; settings: application rate 320 g/ha, Table B14
Procedure, shortened: as §1

[5] = system: Avena fatua; experiment: as above; format: in vivo; settings: application rate 320 g/ha, scored visually after about 3 weeks vs untreated controls
Procedure, shortened: as §1

[6] = system: Abutilon theophrasti; experiment: as above; format: in vivo; settings: application rate 320 g/ha, scored visually after about 3 weeks vs untreated controls
Procedure, shortened: as §1

[7] = system: Setaria viridis; experiment: as above; format: in vivo; settings: application rate 320 g/ha, Table B11
Procedure, shortened: as §1

[8] = system: Viola tricolor; experiment: as above; format: in vivo; settings: application rate 320 g/ha, Table B8
Procedure, shortened: as §1

[9] = system: Pharbitis purpurea; experiment: as above; format: in vivo; settings: application rate 320 g/ha, Table B12
Procedure, shortened: as §1

[10] = system: Alopecurus myosuroides; experiment: as above; format: in vivo; settings: application rate 320 g/ha, scored visually after about 3 weeks vs untreated controls
Procedure, shortened: as §1

[11] = system: Matricaria inodora; experiment: as above; format: in vivo; settings: application rate 320 g/ha, scored visually after about 3 weeks vs untreated controls
Procedure, shortened: as §1

[12] = system: Amaranthus retroflexus; experiment: as above; format: in vivo; settings: application rate 320 g/ha, scored visually after about 3 weeks vs untreated controls
Procedure, shortened: as §1

[13] = molecular target: T1, photosystem II (PS II) (Spinacia oleracea, UniProt P69560); experiment: Measurement of PS II activity in thylakoid membranes (DCPIP reduction); format: biochemical, spinach; settings: PS II activity in spinach thylakoid membranes, Table E1; read-out: Effect
T1 construct: the chloroplasts were osmotically ruptured and the thylakoid membranes were then obtained by centrifugation; from tissue; host or cells: fresh spinach leaves; thylakoid membrane preparation from isolated chloroplasts
Description: Cooled fresh spinach leaves were comminuted and homogenized in 50 mM phosphate buffer, pH 6.8. 10 mM KCl, 0.34 M sucrose (sucrose buffer) (blender, 1 g of plant material/ml). The homogenate was subsequently filtered through 4 layers of Miracloth and the chloroplasts were isolated by centrifugation, i.e. 10 min of centrifugation at 4400×g (4° C.). The sediment was suspended in 25 ml of sucrose buffer and re-centrifuged for 10 min at 4400×g (4° C.). The sediment was then suspended in 40 ml of 50 mM phosphate buffer, pH 6.8, 10 mM KCl, without sucrose. In this step, the chloroplasts were osmotically ruptured and the thylakoid membranes were then obtained by centrifugation (10 min, 4400×g, 4° C.). The membrane sediment was finally suspended in about 20 ml of 50 mM phosphate buffer, pH 6.8, 10 mM KCl. Following protein determination and activity determination, the membrane suspension was divided into aliquots and frozen in liquid nitrogen. The aliquots were stored at −80° C. Under these conditions, the photosystem II preparation was storage stable for at least three months. The activity determination of photosystem II (PS II) was then carried out using the following test principle: The electron transfer from PS II to an artificial electron acceptor, 2,6-dichlorophenolindophenol (DCPIP), was measured with exposure to light. The concentration of the blue oxidized form of DCPIP was determined spectrophotometrically at wavelength λ=595 nm. […] The activity determination is carried out in microtiter plates (96 cavities) in a reaction volume of 200 μl. Here, 155 μl of dilute membrane suspension were initially charged in 50 mM of phosphate buffer, pH 6.8, 10 mM KCl. Depending on the activity of the PS II preparation, the dilution was adjusted such that the measurement of the decrease in absorption (λ=595 nm) was linear for at least 10 min. In each case 5 μl solutions of the test compounds of a concentration of 100 μM in DMSO were added to the enzyme suspension; controls contained 5 μl of DMSO; the final concentration of DMSO in the reaction batch was thus 2.5% (v/v); this concentration had no adverse effect on the enzymatic activity. On each microtiter plate, a known PS II inhibitor, for example metribuzin, was used as standard, which allowed the quality of the PS II test to be assessed. The reaction was started by addition of 40 μl DCPIP solution (600 μM in distilled water); the final concentration of DCPIP was 120 μM. Measurement of absorption is carried out over a period of 10 min at 22° C. and with exposure to light. Using metribuzin as comparative substance, the results for the efficacy of the compounds of the general formula (I) at 100 μM are stated in the table below using the following classification: ++++(inhibition≥90%), +++(90%>inhibition≥70%), ++(70%>inhibition≥50%), +(50%>inhibition≥30%).

[14] = system: Stellaria media; experiment: Herbicidal pre-emergence action (Part 2), 1280 g/ha; format: in vivo; settings: application rate 1280 g/ha, scored visually after about 3 weeks, Table D8
Procedure, shortened: (§2)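 Sow seeds in sandy loam, cover with soil. Apply compound (WP or EC, aqueous, 0.5% additive, 600 L/ha) onto covering soil. Grow in greenhouse about 3 weeks, then rate visually as % effect against untreated controls.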

[15] = system: Lolium rigidum; experiment: as above; format: in vivo; settings: application rate 1280 g/ha, scored visually after about 3 weeks, Table D2
Procedure, shortened: as §2

[16] = system: Poa annua; experiment: as above; format: in vivo; settings: application rate 1280 g/ha, scored visually after about 3 weeks, Table D3
Procedure, shortened: as §2

[17] = system: Matricaria inodora; experiment: as above; format: in vivo; settings: application rate 1280 g/ha, scored visually after about 3 weeks, Table D7
Procedure, shortened: as §2

[18] = system: Amaranthus retroflexus; experiment: as above; format: in vivo; settings: application rate 1280 g/ha, scored visually after about 3 weeks, Table D6
Procedure, shortened: as §2

[19] = system: Stellaria media; experiment: Herbicidal post-emergence action (Part 2), 1280 g/ha; format: in vivo; settings: application rate 1280 g/ha, rated visually after about 3 weeks, Table C7
Procedure, shortened: (§3)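 Sow weeds in sandy loam pots; grow in greenhouse 2 to 3 weeks to one-leaf stage; spray formulated compound with 0.5% additive at 600 liters per hectare; hold about 3 weeks; rate activity visually against untreated controls on a 0 to 100% scale.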

[20] = system: Amaranthus retroflexus; experiment: as above; format: in vivo; settings: application rate 1280 g/ha, rated visually after about 3 weeks, Table C5
Procedure, shortened: as §3

[21] = system: Echinochloa crus-galli; experiment: Herbicidal pre-emergence action (Part 2), 1280 g/ha; format: in vivo; settings: application rate 1280 g/ha, scored visually after about 3 weeks, Table D1
Procedure, shortened: as §2

[22] = system: Abutilon theophrasti; experiment: as above; format: in vivo; settings: application rate 1280 g/ha, scored visually after about 3 weeks, Table D5
Procedure, shortened: as §2

[23] = system: Setaria viridis; experiment: as above; format: in vivo; settings: application rate 1280 g/ha, scored visually after about 3 weeks, Table D4
Procedure, shortened: as §2

[24] = system: Abutilon theophrasti; experiment: Herbicidal post-emergence action (Part 2), 1280 g/ha; format: in vivo; settings: application rate 1280 g/ha, rated visually after about 3 weeks, Table C4
Procedure, shortened: as §3

[25] = system: Matricaria inodora; experiment: as above; format: in vivo; settings: application rate 1280 g/ha, rated visually after about 3 weeks, Table C6
Procedure, shortened: as §3

[26] = system: Echinochloa crus-galli; experiment: as above; format: in vivo; settings: post-emergence (Part 2), application rate 1280 g/ha, rated visually after about 3 weeks vs untreated controls
Procedure, shortened: as §3

[27] = system: Poa annua; experiment: as above; format: in vivo; settings: application rate 1280 g/ha, rated visually after about 3 weeks, Table C2
Procedure, shortened: as §3

[28] = system: Abutilon theophrasti; experiment: Post-emergence herbicidal action, greenhouse, 320 g/ha; format: in vivo; settings: application rate 320 g/ha, rated visually after about 3 weeks vs untreated controls
Description: (§4) Seeds of monocotyledonous and dicotyledonous weeds and crop plants were placed in sandy loam in plastic or wood-fiber pots, covered with soil and cultivated in a greenhouse under controlled growth conditions. 2 to 3 weeks after sowing, the test plants were treated at the one-leaf stage. The compounds of the invention, formulated in the form of wettable powders (WP) or as emulsion concentrates (EC), were then sprayed onto the green parts of the plants as aqueous suspension or emulsion with addition of 0.5% additive at a water application rate of […] (converted). After the test plants had been kept in the greenhouse under optimum growth conditions for about 3 weeks, the activity of the preparations was rated visually in comparison to untreated controls. For example, 100% activity=the plants have died, 0% activity=like control plants. Tables A1 to A14 below show the effects of selected compounds of the general formula (I) according to Tables 1.1 to 1.150 on various harmful plants and at an application rate corresponding to 320 g/ha, which were obtained by the experimental procedure mentioned above.

[29] = system: Pharbitis purpurea; experiment: as above; format: in vivo; settings: application rate 320 g/ha, rated visually after about 3 weeks vs untreated controls
Description: as §4

[30] = system: Amaranthus retroflexus; experiment: as above; format: in vivo; settings: application rate 320 g/ha, rated visually after about 3 weeks vs untreated controls
Description: as §4

SMILES | Stellaria media [14] | Lolium rigidum [15] | Poa Annua [16] | Matricaria inodora [17] | Amaranthus retroflexus [18] | Stellaria media [19] | Amaranthus retroflexus [20] | Echinochloa crus-galli [21] | Abutilon theophrasti [22] | Setaria viridis [23] | Abutilon theophrasti [24] | Matricaria inodora [25] | also measured
CN1CCC(O)N(c2cc(C(C)(C)C)on2)C1=O (stereo not shown) [I.1-162, 3-(5-tert-Butyl-1,2-oxazol-3-yl)-4-hydroxy-1-methyltetrahydropyrimidin-2(1H)-one] | – | – | – | – | – | – | – | – | – | – | – | – | Echinochloa crus-galli (efficacy in %) [1]: 80%; Stellaria media (efficacy in %) [2]: 90%; Polygonum convolvulus (efficacy in %) [3]: 90%; Hordeum murinum (efficacy in %) [4]: 90%; Avena fatua (efficacy in %) [5]: 90%; Abutilon theophrasti (efficacy in %) [6]: 100%; Setaria viridis (efficacy in %) [7]: 90%; Viola tricolor (efficacy in %) [8]: 90%; Pharbitis purpurea (efficacy in %) [9]: 80%; Alopecurus myosuroides (efficacy in %) [10]: 90%; Matricaria inodora (efficacy in %) [11]: 100%; Amaranthus retroflexus (efficacy in %) [12]: 100%; inhibition at 100 µM [13]: > 90%
CC(=O)OC1CCN(C)C(=O)N1c1cc(C(F)(F)F)ccn1 (stereo not shown) [I.2-449] | 100% | 90% | 100% | 100% | 100% | 100% | 100% | – | – | – | – | – | –
CC(C)C(=O)OC1CCN(C)C(=O)N1c1cc(C(C)(C)C)no1 (stereo not shown) [I.5-290, 3-(3-tert-Butyl-1,2-oxazol-5-yl)-1-methyl-2-oxohexahydropyrimidin-4-yl 2-methylpropanoate] | 100% | – | 90% | 90% | 100% | 100% | 100% | 90% | 100% | 90% | 100% | 100% | –
CC(C)CC(=O)OC1CCN(C)C(=O)N1c1cc(C(C)(C)C)no1 (stereo not shown) [I.7-290] | 100% | – | 90% | 100% | 100% | – | 100% | – | 100% | – | 100% | – | Echinochloa crus-galli [26]: 100%
CC(=O)OC1N(c2cc(C(C)(C)C)on2)C(=O)N(C)CC1(C)C (stereo not shown) [I.62-162] | 100% | – | 100% | 100% | 100% | – | 100% | 90% | 100% | 100% | 100% | 100% | Poa Annua [27]: 100%
CC(C)(C)c1cc(N2C(=O)N3CCCC3CC2O)no1 (stereo not shown) [I.121-162] | 100% | 90% | 100% | 100% | 100% | – | – | 100% | 100% | 100% | – | – | Abutilon theophrasti (efficacy in %) [28]: 80%; Pharbitis purpurea (efficacy in %) [29]: 80%; Amaranthus retroflexus (efficacy in %) [30]: 100%
